The NIST ThermoML archive (doi:10.1016/j.tca.2009.06.004)

Test: excess molar enthalpy (molar enthalpy of mixing); xn = mol fraction of the nth substance listed
Conditions: 298.15 K, 101 kPa, Liquid, Calvet calorimetry

OCCOCCO [diethylene glycol] + O
Conditions | excess molar enthalpy [kcal/mol]
x2 = 0.1026 | -0.0657
x2 = 0.2012 | -0.122
x2 = 0.2094 | -0.125
x2 = 0.3067 | -0.177
x2 = 0.4068 | -0.223
x2 = 0.4937 | -0.248
x2 = 0.5018 | -0.255
x2 = 0.6003 | -0.285
x2 = 0.6996 | -0.298
x2 = 0.7998 | -0.28
x2 = 0.8999 | -0.205
x2 = 0.9002 | -0.207
x2 = 0.9498 | -0.129

OCCO [1,2-ethanediol] + O
Conditions | excess molar enthalpy [kcal/mol]
x2 = 0.1014 | -0.0416
x2 = 0.1994 | -0.0805
x2 = 0.2091 | -0.0829
x2 = 0.3051 | -0.115
x2 = 0.3674 | -0.134
x2 = 0.3995 | -0.141
x2 = 0.4807 | -0.153
x2 = 0.5455 | -0.159
x2 = 0.6144 | -0.167
x2 = 0.669 | -0.171
x2 = 0.7949 | -0.163
x2 = 0.8656 | -0.136
x2 = 0.915 | -0.101

OCCOCCOCCO [triethylene glycol] + CCO
Conditions | excess molar enthalpy [kcal/mol]
x2 = 0.104 | 0.028
x2 = 0.2042 | 0.0586
x2 = 0.301 | 0.0837
x2 = 0.399 | 0.104
x2 = 0.5002 | 0.118
x2 = 0.599 | 0.121
x2 = 0.6993 | 0.112
x2 = 0.7995 | 0.0963
x2 = 0.8992 | 0.0621

OCCOCCO [diethylene glycol] + CCO
Conditions | excess molar enthalpy [kcal/mol]
x2 = 0.1048 | 0.0182
x2 = 0.1991 | 0.0308
x2 = 0.2967 | 0.0461
x2 = 0.4009 | 0.0595
x2 = 0.4963 | 0.0626
x2 = 0.5879 | 0.0669
x2 = 0.7041 | 0.0602
x2 = 0.7958 | 0.0488
x2 = 0.9006 | 0.0289

OCC(O)CO [glycerol] + O
Conditions | excess molar enthalpy [kcal/mol]
x2 = 0.1028 | -0.0363
x2 = 0.2192 | -0.0698
x2 = 0.3038 | -0.0925
x2 = 0.3964 | -0.113
x2 = 0.5022 | -0.131
x2 = 0.5956 | -0.143
x2 = 0.6991 | -0.146
x2 = 0.8005 | -0.134
x2 = 0.8995 | -0.087

OCCOCCOCCO [triethylene glycol] + O
Conditions | excess molar enthalpy [kcal/mol]
x2 = 0.1291 | -0.105
x2 = 0.2167 | -0.188
x2 = 0.3145 | -0.258
x2 = 0.4016 | -0.32
x2 = 0.5006 | -0.384
x2 = 0.6006 | -0.431
x2 = 0.6999 | -0.448
x2 = 0.7985 | -0.422
x2 = 0.9013 | -0.312
